Assay: xn = mol fraction of the nth substance listed

CCCCN + CC(C)CO
298.15 K, 101.32 kPa
Conditions	viscosity [mPa·s]
x2 = 0.1005	0.5513
x2 = 0.2	0.6546
x2 = 0.2984	0.7783
x2 = 0.3994	0.9361
x2 = 0.4997	1.135
x2 = 0.5998	1.373
x2 = 0.7007	1.674
x2 = 0.8122	2.126
x2 = 0.8939	2.593

CC[N+](=O)[O-] + CC(C)O
viscosity [mPa·s], 101.33 kPa
Conditions	293.15 K	303.15 K	313.15 K
x2 = 0.0501	0.68	0.605	0.536
x2 = 0.1	0.672	0.595	0.53
x2 = 0.15	0.671	0.592	0.526
x2 = 0.2	0.678	0.594	0.526
x2 = 0.25	0.698	0.601	0.53
x2 = 0.3	0.707	0.613	0.538
x2 = 0.35	0.729	0.628	0.546
x2 = 0.4	0.766	0.647	0.559
x2 = 0.4501	0.8	0.67	0.576
x2 = 0.5	0.827	0.697	0.597
x2 = 0.5499	0.881	0.731	0.62
x2 = 0.6001	0.932	0.777	0.648
x2 = 0.65	1	0.819	0.683
x2 = 0.7	1.08	0.877	0.725
x2 = 0.7499	1.18	0.949	0.774
x2 = 0.8	1.276	1.052	0.849
x2 = 0.8499	1.467	1.154	0.915
x2 = 0.9	1.681	1.305	1.021
x2 = 0.95	1.983	1.507	1.16

Cc1ccncc1 + CC(C)O
298.15 K, 101.33 kPa
Conditions	viscosity [mPa·s]
x2 = 0.0886	0.8731
x2 = 0.1711	0.8916
x2 = 0.2569	0.9174
x2 = 0.4424	0.9998
x2 = 0.5207	1.048
x2 = 0.6685	1.181
x2 = 0.8095	1.405
x2 = 0.8831	1.599

CCCCN + CCC(=O)O
viscosity [mPa·s], 101 kPa
Conditions	x2 = 0.2	x2 = 0.3	x2 = 0.4	x2 = 0.5	x2 = 0.6	x2 = 0.7	x2 = 0.75	x2 = 0.8	x2 = 0.875
293.15 K	1.82	15.13	63.74	0.5662	178	54.56	30.14	18.72	5.08
298.15 K	1.75	12.72	51.68	0.4002	137.5	43.2	25.03	15.68	4.48
303.15 K	1.63	10.92	41.89	–	107.7	35.21	20.17	13	4.05
308.15 K	1.56	9.48	34.98	–	85.1	29.21	17.49	11.15	3.57
313.15 K	1.44	8.34	29.06	176.5	71.2	24.51	15.02	–	3.09
313.5 K	–	–	–	–	–	–	–	9.51	–
318.15 K	1.41	7.31	24.58	136.6	57.9	20.64	12.59	8.34	2.86
323.15 K	–	6.66	21.02	112.7	47.7	17.83	11.15	7.33	2.73

CCCCN + CCC(C)=O
303.15 K, 101.33 kPa
Conditions	viscosity [mPa·s]
x1 = 0.0943	0.482
x1 = 0.181	0.593
x1 = 0.2823	0.732
x1 = 0.4616	0.924
x1 = 0.5768	0.967
x1 = 0.674	0.914
x1 = 0.7814	0.819
x1 = 0.891	0.671

CCCCN + CCC(C)O
303.15 K, 101 kPa
Conditions	viscosity [mPa·s]
x1 = 0.01013	2.438
x1 = 0.02003	2.41
x1 = 0.03045	2.381
x1 = 0.03818	2.364
x1 = 0.05108	2.332
x1 = 0.05904	2.313
x1 = 0.07204	2.283
x1 = 0.08279	2.26
x1 = 0.09543	2.229

CC[N+](=O)[O-] + CCC(C)O
viscosity [mPa·s], 101.33 kPa
Conditions	293.15 K	303.15 K	313.15 K
x2 = 0.05	0.679	0.605	0.543
x2 = 0.1	0.68	0.601	0.538
x2 = 0.15	0.684	0.604	0.536
x2 = 0.2001	0.704	0.616	0.542
x2 = 0.25	0.727	0.632	0.555
x2 = 0.3002	0.759	0.652	0.569
x2 = 0.35	0.793	0.676	0.586
x2 = 0.4	0.845	0.716	0.61
x2 = 0.45	0.904	0.75	0.64
x2 = 0.5	0.971	0.8	0.675
x2 = 0.55	1.034	0.847	0.707
x2 = 0.5999	1.123	0.909	0.75
x2 = 0.6499	1.236	0.98	0.801
x2 = 0.7	1.378	1.07	0.862
x2 = 0.7497	1.516	1.169	0.935
x2 = 0.8	1.723	1.319	1.026
x2 = 0.8499	1.983	1.484	1.144
x2 = 0.8998	2.353	1.724	1.304
x2 = 0.9499	2.873	2.05	1.511

Cc1ccncc1 + CCC(C)O
298.15 K, 101.33 kPa
Conditions	viscosity [mPa·s]
x2 = 0.0808	0.8992
x2 = 0.1812	0.9547
x2 = 0.2378	0.9923
x2 = 0.3187	1.047
x2 = 0.3221	1.052
x2 = 0.3999	1.131
x2 = 0.4574	1.186
x2 = 0.5582	1.328
x2 = 0.6284	1.445
x2 = 0.7034	1.608
x2 = 0.8528	2.092
x2 = 0.9272	2.446

CCCC(=O)OCC + CCCCCC
303.15 K, 101 kPa
Conditions	viscosity [mPa·s]
x1 = 0.1354	0.3067
x1 = 0.2995	0.3404
x1 = 0.3884	0.3564
x1 = 0.4879	0.388
x1 = 0.7244	0.4602

CCCCN + CCCCCC
viscosity [mPa·s]
Conditions	298.15 K	303.15 K	313.15 K
101.3 kPa, x2 = 0.0995	0.4331	–	0.3573
101.3 kPa, x2 = 0.2009	0.4017	–	0.3331
101.3 kPa, x2 = 0.2987	0.3782	–	0.3159
101.3 kPa, x2 = 0.4003	0.3564	–	0.3002
101.3 kPa, x2 = 0.4987	0.3397	–	0.2875
101.3 kPa, x2 = 0.5995	0.3249	–	0.2767
101.3 kPa, x2 = 0.7021	0.3127	–	0.2675
101.3 kPa, x2 = 0.8015	0.3036	–	0.2608
101.3 kPa, x2 = 0.8999	0.2974	–	0.2562
101.33 kPa, x1 = 0.1342	–	0.266	–
101.33 kPa, x1 = 0.2674	–	0.262	–
101.33 kPa, x1 = 0.4006	–	0.245	–
101.33 kPa, x1 = 0.5268	–	0.252	–
101.33 kPa, x1 = 0.6349	–	0.281	–
101.33 kPa, x1 = 0.7491	–	0.318	–
101.33 kPa, x1 = 0.8215	–	0.368	–
101.33 kPa, x1 = 0.9178	–	0.445	–

CCCC(=O)OCC + CCCCCCC
viscosity [mPa·s], 101.3 kPa
Conditions	308.15 K	318.15 K
x1 = 0.0502	0.356	0.325
x1 = 0.1025	0.36	0.33
x1 = 0.2204	0.373	0.344
x1 = 0.2988	0.383	0.354
x1 = 0.3991	0.398	0.371
x1 = 0.5188	0.421	0.393
x1 = 0.6073	0.442	0.415
x1 = 0.6954	0.467	0.436
x1 = 0.8003	0.499	0.469
x1 = 0.9011	0.544	0.518
x1 = 0.9513	0.57	0.539

CCCCC(CC)COP(=O)(OCC(CC)CCCC)OCC(CC)CCCC (stereo unspecified) + CCCCCCC
viscosity [mPa·s], 101 kPa
Conditions	x1 = 0.0981	x1 = 0.2035	x1 = 0.2861	x1 = 0.4005	x1 = 0.4721	x1 = 0.5804	x1 = 0.7028	x1 = 0.8061	x1 = 0.9053
298.15 K	0.691	1.161	1.648	2.531	3.204	4.44	6.106	7.818	9.599
303.15 K	0.645	1.071	1.509	2.267	2.848	3.886	5.277	6.674	8.111
308.15 K	0.604	0.992	1.377	2.046	2.547	3.434	4.599	5.747	6.914

CCCCN + CCCCCCC
303.15 K, 101.33 kPa
Conditions	viscosity [mPa·s]
x1 = 0.1262	0.355
x1 = 0.243	0.345
x1 = 0.3214	0.358
x1 = 0.4018	0.358
x1 = 0.4973	0.362
x1 = 0.6195	0.381
x1 = 0.7804	0.434
x1 = 0.8723	0.462

CCCCC(CC)COP(=O)(OCC(CC)CCCC)OCC(CC)CCCC (stereo unspecified) + CCCCCCCC
viscosity [mPa·s], 101 kPa
Conditions	x1 = 0.098	x1 = 0.1989	x1 = 0.2979	x1 = 0.381	x1 = 0.489	x1 = 0.5902	x1 = 0.693	x1 = 0.7952	x1 = 0.9044
298.15 K	0.83	1.287	1.852	2.52	3.555	4.707	6.118	7.688	9.668
303.15 K	0.773	1.183	1.674	2.264	3.136	4.108	5.242	6.565	8.204
308.15 K	0.722	1.074	1.498	2.016	2.759	3.592	4.585	5.632	6.964

CCCCN + CCCCCCCC
303.15 K, 101.33 kPa
Conditions	viscosity [mPa·s]
x1 = 0.1275	0.462
x1 = 0.2962	0.441
x1 = 0.4015	0.433
x1 = 0.5214	0.428
x1 = 0.6438	0.42
x1 = 0.7573	0.434
x1 = 0.9231	0.478

CCC(C)(C)C + CCCCCCCCCCCC
298 K, 101.33 kPa
Conditions	viscosity [mPa·s]
x1 = 0.0995	1.264
x1 = 0.2015	1.152
x1 = 0.2997	1.056
x1 = 0.3975	0.944
x1 = 0.5013	0.8256
x1 = 0.6011	0.7202
x1 = 0.7	0.6152
x1 = 0.7997	0.5206
x1 = 0.9002	0.4256
